Consider 29 molecules from US20220298115A1, “SMALL MOLECULE INHIBITORS OF ACETYL COENZYME A SYNTHETASE SHORT CHAIN 2 (ACSS2)” (Curadev Pharma Pvt. Ltd., priority 2019, published 2022).

One assay has as its target T1, human ACSS2 (Homo sapiens, UniProt Q9NR19).
T1 construct: The cytosolic fraction of BT474 cells was used as a source of the ACSS2 enzyme; endogenous in cells; host or cells: BT474 cells (cytosolic fraction)
As to the kind of experiment: ACSS2 enzyme assay (acetyl-CoA formation, LC-MS/MS). Format: biochemical. Conditions: cytosolic fraction of BT474 cells as ACSS2 source; 100 μM acetate, CoA and ATP; 2 h at 25° C.; read-out: Enzyme Activity (IC50 range). The method, then:
Novel compounds were screened in a human ACSS2 enzyme assay. Briefly, the ACSS2 enzyme reaction was monitored by directly measuring acetyl-CoA formation. The cytosolic fraction of BT474 cells was used as a source of the ACSS2 enzyme. A short protocol for this assay is provided below.
Preparation of Cytosolic Fraction from BT474 Cells
9×10^6 cells were harvested by trypsinization followed by centrifugation. The cell pellet was washed with PBS and dissolved in 500 μl STM buffer (50 mM Tris-HCl pH7.4, 250 mM sucrose, 5 mM MgCl2 & protease-phosphatase inhibitor cocktail) and homogenized at 600-1000 rpm for 1 min. on ice followed by incubation for 30 min. with intermittent vortexing. Supernatant was collected by centrifugation at 800 g for 15 min. at 4° C. Cytosolic fraction was prepared by further centrifugation of the supernatant at 12000 g for 15 min. at 4° C. Total protein content of the cytosolic fraction was estimated & diluted to 1 mg/ml concentration in storage buffer (25 mM Tris-HCl pH7.4, 1 mM MgCl2, 1 mM DTT & 10% glycerol) and stored at −80° C. for further use.
100 ng of cytosolic fraction in buffer composed of 25 mM Tris-HCl pH7.4 1 mM MgCl2, 1 mM DTT & 0.05% Tween20 was preincubated with desired concentrations of novel compounds for 5 min. maintaining 1% DMSO. Reaction was started with addition of substrate mix (100 μM of acetate, CoA and ATP) and incubated for 2 h at 25° C. with constant shaking at 500 rpm. Post incubation the reaction was terminated by addition of 10% TCA followed by 5 fold dilution in water. The reaction mixture was centrifuged at 800 g for 10 min. at RT and acetyl-CoA detected in supernatant by LC-MS/MS (QTrap5500 ABSCIEX).

Assay [1] relates to [14C] acetate incorporation in macromolecules, BT474 cells. As to the kind of experiment: Cell based [14C] acetate incorporation assay. Conditions: Homo sapiens, BT-474, 3 h at 37° C., read-out: Cellular Activity (IC50 range). The method, then: Cell Based [^14C] Acetate Incorporation Assay
In the cellular assay, ACSS2 inhibitors were screened against [^14C] acetate incorporation in macromolecules. 4×10^4 BT474 cells were plated in 96 well plates in growth media composed of DMEM & 10% FBS and incubated overnight in a 37° C., 5% CO2 incubator. The following day the cells were washed in HBSS and the assay was performed in 100 μl of HBSS. 50 μl of 4× compound in 4% DMSO was added to the cells and preincubated for 10 min. at 37° C. 50 μl of acetate solution (0.1 μCi ^14C acetate+10 μM ^12C acetate) was added to each well of the plate and incubated for 3 h in a 37° C., 5% CO2 incubator. Following incubation, cells were harvested with water on polyethylene imine (PEI) presoaked GF/C filtermat, air dried and radioactive count were recorded in Trilux micro beta Liquid Scintillation Counter (PerkinElmer).

T1 sequence (Q9NR19 whole entry): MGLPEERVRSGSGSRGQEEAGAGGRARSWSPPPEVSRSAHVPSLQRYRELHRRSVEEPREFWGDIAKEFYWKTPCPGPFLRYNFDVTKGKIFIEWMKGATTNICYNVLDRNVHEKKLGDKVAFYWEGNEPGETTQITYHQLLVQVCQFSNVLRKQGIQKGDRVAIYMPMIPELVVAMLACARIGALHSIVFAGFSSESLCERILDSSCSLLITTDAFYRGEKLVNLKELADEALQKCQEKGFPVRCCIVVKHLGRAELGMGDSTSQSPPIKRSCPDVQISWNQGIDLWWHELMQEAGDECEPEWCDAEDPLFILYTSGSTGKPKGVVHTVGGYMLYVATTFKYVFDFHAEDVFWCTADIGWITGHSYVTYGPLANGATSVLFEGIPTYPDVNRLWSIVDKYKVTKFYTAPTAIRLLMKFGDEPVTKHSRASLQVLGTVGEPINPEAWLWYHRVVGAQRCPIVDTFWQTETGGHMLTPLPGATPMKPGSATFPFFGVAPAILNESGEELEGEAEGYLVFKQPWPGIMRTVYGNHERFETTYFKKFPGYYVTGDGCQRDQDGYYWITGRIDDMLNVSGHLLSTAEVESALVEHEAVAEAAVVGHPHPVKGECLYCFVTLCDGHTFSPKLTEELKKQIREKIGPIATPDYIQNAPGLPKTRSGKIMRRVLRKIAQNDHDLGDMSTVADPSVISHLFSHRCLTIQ

As to `CCC(O)CNC(=O)Nc1ccc2nc(-c3ccccc3)c(-c3ccccc3)c(N(C)C)c2c1` (stereo not shown) [Example 91, 1-(4-(dimethylamino)-2,3-diphenylquinolin-6-yl)-3-(2-hydroxybutyl) urea], the half-inhibitory concentration (IC50) (on human ACSS2; in assay [1]) was less than 100 nM each time.

Turning to `CCC(O)CCC(=O)Nc1ccc2nc(-c3ccccc3F)c(-c3ccccc3F)cc2c1` (stereo not shown) [Example 128, N-(2,3-Bis(2-fluorophenyl)quinolin-6-yl)-4-hydroxyhexanamide], the IC50 (at human ACSS2; in assay [1]) was less than 100 nM throughout.

`CCC(CNC(=O)Nc1ccc2nc(-c3ccccc3)c(-c3ccccc3F)cc2c1)OC` (stereo not shown) [Example 44, 1-(3-(2-fluorophenyl)-2-phenylquinolin-6-yl)-3-(2-methoxybutyl) urea]: the IC50 (at human ACSS2; in assay [1]) was less than 100 nM in each case.

As for `O=C(Nc1ccccc1)Nc1ccc2nc(-c3ccccc3)c(-c3ccccc3)cc2c1` [Example 140, 1-(2,3-diphenylquinolin-6-yl)-3-phenylurea], the IC50 (at human ACSS2; in assay [1]) was more than 10000 nM in each case.

Turning to `CCC(=O)CCC(=O)Nc1ccc2nc(-c3ccccc3OC)c(-c3ccccc3)cc2c1` [Example 120, N-(2-(2-methoxy-phenyl)-3-phenyl-quinolin-6-yl)-4-oxohexan-amide], the IC50 (on human ACSS2; in assay [1]) was less than 100 nM throughout.

Take `CC[C@H](CNC(=O)Nc1ccc2nc(-c3ccccc3)c(-c3ccccc3F)cc2c1)OP(=O)(O)O` [Example 117, (R)-1-(3-(3-(2-fluorophenyl)-2-phenylquinolin-6-yl)ureido)butan-2-yl dihydrogen phosphate]: the IC50 (on human ACSS2; in assay [1]) was less than 100 nM in each case.

As to `CC[C@@H](O)CNC(=O)Nc1ccc2nc(C)c(-c3ccccc3)cc2c1` [Example 72, (R)-1-(2-Hydroxybutyl)-3-(2-methyl-3-phenylquinolin-6-yl)urea], the IC50 (at human ACSS2; in assay [1]) was less than 100 nM each time.

With `CCC(O)CNC(=O)Nc1ccc2ncc(-c3ccccc3)c(C(N)=O)c2c1` (stereo not shown) [Example 71, 6-(3-(2-hydroxybutyl)ureido)-3-phenylquinoline-4-carboxamide], the IC50 (commonly the point on the concentration scale where inhibition reaches its midpoint) on human ACSS2 is not above 1000 nM; in assay [1], more than 10000 nM.

As to `CCC(F)(F)CNC(=O)Nc1ccc2nc(C)c(-c3ccccc3)cc2c1` [Example 105, 1-(2,2-difluorobutyl)-3-(2-methyl-3-phenylquinolin-6-yl)urea], the IC50 (at human ACSS2; in assay [1]) was less than 100 nM throughout.

As to `CCC(O)CNC(=O)Nc1ccc2nc(-c3ccccc3F)c(-c3ccccc3OC)cc2c1` (stereo not shown) [Example 26, 1-(2-(2-fluorophenyl)-3-(2-methoxyphenyl)quinolin-6-yl)-3-(2-hydroxybutyl) urea], the 50% inhibitory concentration (IC50) (at human ACSS2; in assay [1]) was less than 100 nM in each case.

With `CCC(O)CNC(=O)Nc1ccc2nc(-c3ccncc3)c(-c3ccncc3)cc2c1` (stereo not shown) [Example 24, 1-(2,3-di(pyridin-4-yl)quinolin-6-yl)-3-(2-hydroxybutyl) urea], the half-maximal inhibitory concentration (IC50) was not above 1000 nM at human ACSS2 and not above 10000 nM in assay [1].

Turning to `CCC(O)CNC(=O)Nc1ccc2nc(-c3ccccc3N)c(-c3ccccc3F)cc2c1` (stereo not shown) [Example 54, 1-(2-(2-aminophenyl)-3-(2-fluorophenyl)quinolin-6-yl)-3-(2-hydroxybutyl) urea], the IC50 (at human ACSS2; in assay [1]) was less than 100 nM throughout.

Consider `CCC(O)CNC(=O)Nc1ccc2nc(-c3ccc(OC)nc3)c(-c3ccc(OC)nc3)cc2c1` (stereo not shown) [Example 11, 1-(2,3-bis(6-methoxypyridin-3-yl)quinolin-6-yl)-3-(2-hydroxybutyl) urea], for which the figures for the IC50 (on human ACSS2; in assay [1]) were not above 1000 nM and not above 10000 nM, respectively.

`CCC(O)CNC(=O)Nc1ccc2nc(-c3cccnc3)c(-c3ccccc3)cc2c1` (stereo not shown) [Example 41, 1-(2-hydroxybutyl)-3-(3-phenyl-2-(pyridin-3-yl)quinolin-6-yl)urea]: the 50% inhibitory concentration (IC50) (on human ACSS2; in assay [1]) was less than 100 nM throughout.

`CC[C@@H](O)CNC(=O)Nc1ccc2nc(-c3ccccc3)c(-c3ccccc3)c(C)c2c1` [Example 103, (R)-1-(2-hydroxybutyl)-3-(4-methyl-2,3-diphenylquinolin-6-yl)urea]: the IC50 (on human ACSS2; in assay [1]) was less than 100 nM each time.

With `CCC(O)CNC(=O)Nc1cnc2nc(-c3ccccc3)c(-c3ccccc3)cc2c1` (stereo not shown) [Example 145, 1-(6,7-Diphenyl-1,8-naphthyridin-3-yl)-3-(2-hydroxybutyl)urea], the IC50 (at human ACSS2; in assay [1]) was not above 1000 nM each time.

As for `CCC(O)CNC(=O)Nc1ccc2nc(-c3ccc(-c4ccccc4)cc3)c(-c3ccccc3)cc2c1` (stereo not shown) [Example 55, 1-(2-([1,1′-biphenyl]-4-yl)-3-phenylquinolin-6-yl)-3-(2-hydroxybutyl) urea], the results for the half-maximal inhibitory concentration (IC50) (on human ACSS2; in assay [1]) were not above 10000 nM and more than 10000 nM, respectively.

For `CCCCNC(=O)Nc1ccc2nc(-c3ccccc3)c(-c3ccccc3OC)cc2c1` [Example 23, 1-butyl-3-(3-(2-methoxyphenyl)-2-phenylquinolin-6-yl)urea], the IC50 (on human ACSS2; in assay [1]) was less than 100 nM throughout.

For `CCCCNC(=O)Nc1ccc2nc(-c3ccccc3)c(-c3ccccc3)cc2c1` [Example 3, 1-butyl-3-(2,3-diphenylquinolin-6-yl)urea], the IC50 (on human ACSS2; in assay [1]) was less than 100 nM throughout.

`CCC(O)CNC(=O)Nc1ccc2nc(-c3ccccc3)c(-c3ccccc3)c(N)c2c1` (stereo not shown) [Example 95, 1-(4-Amino-2,3-diphenylquinolin-6-yl)-3-(2-hydroxybutyl)urea]: the half-inhibitory concentration (IC50) (on human ACSS2; in assay [1]) was less than 100 nM each time.

Take `CC[C@@H](O)CNC(=O)Nc1ccc2nc(C)c(-c3ccccc3C)cc2c1` [Example 83, (R)-1-(2-hydroxybutyl)-3-(2-methyl-3-(o-tolyl)quinolin-6-yl)urea]: the half-inhibitory concentration (IC50) (on human ACSS2; in assay [1]) was less than 100 nM in each case.

For `CCC(O)CNC(=O)Nc1ccc2nc(-c3ccnc(O)c3)c(-c3ccnc(O)c3)cc2c1` (stereo not shown) [Example 29, 1-(2,3-bis(2-hydroxypyridin-4-yl)quinolin-6-yl)-3-(2-hydroxybutyl) urea], the IC50 (at human ACSS2; in assay [1]) was more than 10000 nM in each case.

Take `CCC(O)CNC(=O)Nc1ccc2nc(-c3cccnc3OC)c(-c3cccnc3OC)cc2c1` (stereo not shown) [Example 13, 1-(2,3-bis(2-methoxypyridin-3-yl)quinolin-6-yl)-3-(2-hydroxybutyl) urea]: the IC50 (on human ACSS2; in assay [1]) was not above 1000 nM each time.

With `CCC(O)CNC(=O)Nc1ccc2nc(C)c(-c3ccccc3)cc2c1C1CC1` (stereo not shown) [Example 86, 1-(5-cyclopropyl-2-methyl-3-phenylquinolin-6-yl)-3-(2-hydroxybutyl) urea], the half-maximal inhibitory concentration (IC50) (at human ACSS2; in assay [1]) was less than 100 nM in each case.

For the molecule `CCC(O)CNC(=O)Nc1ccc2nc(C3=CCCCC3)c(-c3ccccc3F)cc2c1` (stereo not shown) [Example 32, 1-(2-(cyclohex-1-en-1-yl)-3-(2-fluorophenyl)quinolin-6-yl)-3-(2-hydroxybutyl) urea], the 50% inhibitory concentration (IC50) (at human ACSS2; in assay [1]) was not above 1000 nM throughout.

For the molecule `CCC(O)CNC(=O)Nc1ccc2nc(C)c(-c3cnn(C)c3)cc2c1` (stereo not shown) [Example 82, 1-(2-hydroxybutyl)-3-(2-methyl-3-(1-methyl-1H-pyrazol-4-yl)quinolin-6-yl)urea], the IC50 at human ACSS2 is not above 1000 nM; in assay [1], more than 10000 nM.

Turning to `O=C(Nc1ccc2nc(-c3ccccc3)c(-c3ccccc3)cc2c1)NC1CCCC1O` (stereo not shown) [Example 136, 1-(2,3-diphenylquinolin-6-yl)-3-(2-hydroxycyclo-pentyl)urea], the IC50 (at human ACSS2; in assay [1]) was not above 1000 nM throughout.

Turning to `CCCCNC(=O)Nc1ccc2nc(-c3ccccc3OC)c(-c3ccccc3F)cc2c1` [Example 37, 1-butyl-3-(3-(2-fluorophenyl)-2-(2-methoxyphenyl)quinolin-6-yl)urea], the IC50 (on human ACSS2; in assay [1]) was less than 100 nM throughout.

On to `CCC(O)CNC(=O)Nc1ccc2nc(-c3ccccc3C#N)c(-c3ccccc3F)cc2c1` (stereo not shown) [Example 53, 1-(2-(2-cyanophenyl)-3-(2-fluorophenyl)quinolin-6-yl)-3-(2-hydroxybutyl) urea], for which the IC50 is less than 100 nM at human ACSS2 and not above 1000 nM in assay [1].
